Biological target: T1, Sodium/glucose cotransporter 2 (Homo sapiens, UniProt P31639)
T1 sequence (P31639 whole entry): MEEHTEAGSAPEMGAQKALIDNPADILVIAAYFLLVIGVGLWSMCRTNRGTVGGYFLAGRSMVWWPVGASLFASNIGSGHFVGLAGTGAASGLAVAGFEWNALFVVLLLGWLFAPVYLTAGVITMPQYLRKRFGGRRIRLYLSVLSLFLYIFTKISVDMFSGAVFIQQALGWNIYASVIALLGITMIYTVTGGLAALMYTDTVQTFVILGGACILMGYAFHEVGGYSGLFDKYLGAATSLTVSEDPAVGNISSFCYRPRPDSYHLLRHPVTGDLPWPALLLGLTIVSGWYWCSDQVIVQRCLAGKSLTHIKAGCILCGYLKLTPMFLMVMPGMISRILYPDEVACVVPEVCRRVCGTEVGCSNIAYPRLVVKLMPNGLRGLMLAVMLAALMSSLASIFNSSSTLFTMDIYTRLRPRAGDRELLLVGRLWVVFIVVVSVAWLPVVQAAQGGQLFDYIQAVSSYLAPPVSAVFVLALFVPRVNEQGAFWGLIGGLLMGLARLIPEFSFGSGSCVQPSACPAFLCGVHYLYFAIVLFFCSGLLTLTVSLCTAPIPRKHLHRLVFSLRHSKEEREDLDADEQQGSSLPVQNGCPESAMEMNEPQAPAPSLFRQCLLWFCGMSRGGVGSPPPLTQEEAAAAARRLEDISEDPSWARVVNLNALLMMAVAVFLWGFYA
Assay: Inhibition of human SGLT2 expressed in CHO cells using methyl-alpha-D-glucopyranoside by liquid scintillation counting
Type: cell-based

SMILES	IC50 [nM]
OC[C@H]1O[C@@H](c2ccc3c(c2)Cc2ccc(cc2)OC/C=C/CCCC3)[C@H](O)[C@@H](O)[C@@H]1O	103
OC[C@H]1O[C@@H](c2ccc3c(c2)Cc2ccc(cc2)OC/C=C/CCC3)[C@H](O)[C@@H](O)[C@@H]1O	89.6
OC[C@H]1O[C@@H](c2ccc3c(c2)Cc2ccc(cc2)OCCCCCC3)[C@H](O)[C@@H](O)[C@@H]1O	81.9
OC[C@H]1O[C@@H](c2ccc3c(c2)Cc2ccc(cc2)OCCCCCCC3)[C@H](O)[C@@H](O)[C@@H]1O	99.7

Reference: ChEMBL document CHEMBL1777701, “Glucosides with cyclic diarylpolynoid as novel C-aryl glucoside SGLT2 inhibitors” (Bioorg Med Chem Lett, 2011)
